For assay [1], the system named is MOLT4 cells. The assay is described as follows: Cell cycle analysis by propidium iodide staining. In kind it is cell-based. As to the method:
MOLT4 cells were plated at 1.5 million cells per well in a 6-well plate, with 3 mL of media per well. Immediately after plating, cells were treated with the indicated concentrations of the indicated compound. At the indicated time points, cells were collected by transferring each well to a 15 mL conical, centrifuging (1000 rpm for 3 min), and then washing the cell pellet 3× with cold PBS. Cell pellets were then fixed with 1 mL cold 80% ethanol in PBS at 4° C. overnight. The cell pellets were then washed by adding 1 mL of PBS and then centrifuging (1500 rpm for 5 minutes), followed by aspiration of the PBS/ethanol mix. Cells were resuspended in cell cycle staining solution (100 μg/mL of RNAse A (Roche, 10109169001) and 50 μg/mL propidium iodide (Life Technologies™, P1304MP), diluted in PBS, and incubated for 10 minutes at room temperature. Cell cycle data was acquired by flow cytometry on a Guava® easyCyte™ flow cytometer (Millipore™) using the InCyte™ software. Data was analyzed using FlowJo®. N=3 biological replicates were used for each treatment condition.

For assay [2], the system named is MOLT4 cells (parental, wild type). The assay is described as follows: CellTiter-Glo cell viability, 72 hours. In kind it is cell-based. As to the method:
The indicated cell lines were plated in flat bottom 384-well plates (Corning® cat #3570). MOLT4 cells were plated at a density of 3,000 cells per well in 50 μL media, while OVCAR8, COV362, and Kuramochi cells were plated at a density of 750 cells per well in 50 μL media. Cells were treated the next day (except for MOLT4 cells, which were treated the same day as plating) with 0.1 μL of the indicated compounds in a four-fold dilution series using the Janus pinner. Cells were incubated with compounds for 72 hours at 37° C. 5% CO2. Anti-proliferative effects were then assessed by CellTiter-Glo® Luminescent Cell Viability Assay (Promega™ cat #G7570) according to the manufacturer's standards, measuring luminescence using an EnVision® plate-reader. IC50 values were determined using a non-linear regression curve fit in GraphPad Prism 8. N=4 biological replicates were used for each treatment condition.
MOLT4 cells were plated in a 384-well plate at 5,000 cells per well in 50 μL media (RPMI+10% FBS+1% Penn/Strep) and treated with 0.1 μL of the candidate compounds in four-fold dilution series using the Janus pinner. Cells were incubated with compounds for 72 hours at 37° C. 5% CO2. Anti-proliferative effects of these compounds were assessed 72 hours after compound addition using CellTiter-Glo® (Promega, cat #G7571). All proliferation assays were performed in biological quadruplicate. […] Effects upon cell viability for compound 13 in the MOLT4 WT cells are therefore likely driven in part by Wee1 inhibition, and in part by CRBN-mediated Wee1 degradation. […] Degradation of Wee1 with compound 21 was mediated by VHL.

For assay [3], the target named is PLK1 (Homo sapiens, UniProt P53350). In words: Z′-LYTE kinase activity assay for PLK1. As to conditions: Km ATP, average of two replicates ± SD. The arrangement: purchased Life Technologies (Invitrogen) commercial assay service. The assay is classed as biochemical. As to the method:
(§1) LanthaScreen™ assays were conducted for Wee1 in a 10-point dose response as performed in the commercial assay service by Life Technologies™. Z′-LYTE™ assays were conducted for PLK1 as performed in the commercial assay service by Life Technologies™ in a 10-point dose response using Km ATP concentrations.
The selectivity of Wee1 degradation was then assessed by performing multiplexed mass spectrometry (MS)-based proteomics in MOLT4 cells treated with 100 nM of compound 13 for 2 hours (Donovan et al., Elife 7:e38430 (2018)).

In assay [4] the test system is pCDK1 Y15. In words: Downstream signalling immunoblot in MOLT4 cells (pCDK1 Y15, cleaved PARP, γH2Ax). The assay is classed as cell-based. To be noted: MOLT4 cells. As to the method: Whole cell lysates for immunoblotting were prepared by pelleting cells from each cell line at 4° C. (300 g) for 5 minutes. The resulting cell pellets were washed 1× with ice-cold PBS and then resuspended in RIPA lysis buffer (Sigma, cat #R0278) supplemented with protease and phosphatase inhibitor tablets (Roche cat #4906845001). Lysates were clarified at 14,000 rpm for 15 minutes at 4° C. prior to quantification by BCA assay (Pierce™, cat #23225). Whole cell lysates were loaded into Bolt 4-12% Bis-Tris Gels (Thermo Fisher, cat #NW04120BOX) and separated by electrophoreses at 95 V for 1.5 hours. The gels were transferred to a nitrocellulose membrane using the iBlot® Gel Transfer at P3 for 7 minutes (Thermo Fisher, cat #IB23001) and then blocked for 1 hour at room temperature in Odyssey® blocking buffer (LICOR® Biosciences, cat #927-50010). Membranes were probed using antibodies against the relevant proteins at 4° C. overnight in 20% Odyssey® Blocking Buffer in 1×TBST. Membranes were then washed three times with 1×TBST (at least 5 minutes per wash) followed by incubation with the IRDye® goat anti-mouse (LICOR®, cat #926-32210) or goat anti-rabbit (LICOR®, cat #926-32211) secondary antibody (diluted 1:10,000) in 20% Odyssey® Blocking Buffer in 1×TBST for 1 hour at room temperature. After three washes with 1×TBST (at least 5 minutes per wash), the immunoblots were visualized using the ODYSSEY® Infrared Imaging System (LICOR®).
MOLT4 cells were plated at 1.5 million cells per well in a 6-well plate, with 3 mL of media per well. Cells were then immediately treated with the indicated concentration of the indicated compound and incubated for the indicated amount of time. Cells were collected by transferring each well to a 15 mL conical, centrifuging (1000 rpm for 3 min), then washing the cell pellet 2× with cold PBS. Each cell pellet was then lysed in 100 μL of RIPA lysis buffer (+protease/phosphatase inhibitors). Samples were normalized and prepped in 4×LDS+10% β-mercaptoethanol and boiled for 5 min at 95° C. Lysates were probed for specified proteins by western blotting using the Bolt® system (Life Technologies™)
The effects of targeted Wee1 degradation on the cell cycle were evaluated. Wee1 is required for the temporal regulation of CDK1 at the G2/M cell-cycle checkpoint, and Wee1 loss therefore […] via activation of CDK1. Following loss of Wee1 activity, cells are expected to enter mitosis before completing DNA repair, ultimately resulting in excessive unrepaired DNA damage, mitotic catastrophe, and apoptosis (Beck et al., Mol. Cell Biol. 32:4226-4236 (2012)).

The subject of assay [5] is OVCAR8 cells. In words: Synergy experiment, CellTiter-Glo co-treatment for 72 hours. The assay is classed as cell-based.
The target of assay [6] is Wee1 (Homo sapiens, UniProt P30291). In words: LanthaScreen FRET-based biochemical binding assay for Wee1. To be noted: LanthaScreen Binding activity assay; average of two replicates ± SD. As for the experimental part: as §1

Experimental findings from patent US12318452B2, “Degraders of WEE1 kinase” (DANA-FARBER CANCER INSTITUTE, INC., priority 2018, dated 2025) are described below.

Bounds are passed on as bounds.

Chain of PLK1 (P53350 whole entry): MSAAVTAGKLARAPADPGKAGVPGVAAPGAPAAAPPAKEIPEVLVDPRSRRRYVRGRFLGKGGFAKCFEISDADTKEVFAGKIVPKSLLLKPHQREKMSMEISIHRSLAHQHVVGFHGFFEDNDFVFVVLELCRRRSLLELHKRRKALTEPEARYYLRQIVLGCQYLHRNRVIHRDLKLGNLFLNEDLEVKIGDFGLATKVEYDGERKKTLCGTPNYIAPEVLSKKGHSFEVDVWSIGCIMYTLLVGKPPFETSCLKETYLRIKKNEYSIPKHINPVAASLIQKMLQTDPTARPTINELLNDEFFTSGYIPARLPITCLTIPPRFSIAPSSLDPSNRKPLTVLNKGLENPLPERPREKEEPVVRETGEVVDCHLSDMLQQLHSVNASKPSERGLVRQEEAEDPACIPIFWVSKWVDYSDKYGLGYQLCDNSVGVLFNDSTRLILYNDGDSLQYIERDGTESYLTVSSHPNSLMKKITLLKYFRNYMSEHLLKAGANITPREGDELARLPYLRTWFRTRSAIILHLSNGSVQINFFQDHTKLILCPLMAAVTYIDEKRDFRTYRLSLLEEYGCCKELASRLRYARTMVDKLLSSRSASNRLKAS
Chain of Wee1 (P30291 whole entry): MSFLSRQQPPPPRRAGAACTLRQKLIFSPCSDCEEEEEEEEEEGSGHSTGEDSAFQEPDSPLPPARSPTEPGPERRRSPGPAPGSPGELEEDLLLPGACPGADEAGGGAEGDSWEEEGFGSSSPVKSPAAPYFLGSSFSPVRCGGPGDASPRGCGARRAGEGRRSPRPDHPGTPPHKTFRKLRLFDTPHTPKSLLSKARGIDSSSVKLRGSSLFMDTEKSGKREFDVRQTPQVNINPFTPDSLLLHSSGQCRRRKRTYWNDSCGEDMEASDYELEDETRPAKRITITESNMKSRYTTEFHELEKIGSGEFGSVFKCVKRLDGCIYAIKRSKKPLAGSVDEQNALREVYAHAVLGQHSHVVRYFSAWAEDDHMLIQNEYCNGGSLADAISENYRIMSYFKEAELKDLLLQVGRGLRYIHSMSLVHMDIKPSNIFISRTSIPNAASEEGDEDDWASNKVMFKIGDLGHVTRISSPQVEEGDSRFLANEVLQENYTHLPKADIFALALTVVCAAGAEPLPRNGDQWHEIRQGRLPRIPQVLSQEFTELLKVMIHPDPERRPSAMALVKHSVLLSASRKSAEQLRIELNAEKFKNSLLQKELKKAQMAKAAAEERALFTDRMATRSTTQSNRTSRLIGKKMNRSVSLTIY

Take `C=CCn1c(=O)c2cnc(Nc3ccc(N4CCN(C)CC4)cc3)nc2n1-c1cccc(C(C)(C)O)n1` [AZD1775, 2-allyl-1-[6-(1-hydroxy-1-methylethyl)pyridin-2-yl]-6-{[4-(4-methylpipera-zin-1-yl)phenyl]amino}-1,2-dihydro-3H-pyrazolo[3,4-d]pyrimidin-3-one, reference compound]: in assay [1] (100 nM, 24-hr, MOLT4 cells), the “Effect on the cell cycle” value is “did not appreciably affect the cell cycle”. In addition, the “Dose needed to elicit the same cell cycle changes as 100 nM of compound 13” value in assay [1] (24-hr, MOLT4 cells) worked out at 1 µM. In addition, the “Cell cycle effects in CRBN−/− cells” value in assay [1] (CRBN−/− MOLT4 cells, 24 hours) was “unchanged”. In addition, the IC50 in assay [2] (Homo sapiens, MOLT-4, 72 hours, read-out: Antiproliferative IC50) was determined as 800 nM; in assay [3], 212 ± 12 nM. In addition, the “Downstream signalling changes (pCDK1 Y15, PARP cleavage, γH2Ax)” value in assay [4] (100 nM, 24-hr) was “did not produce any noticeable changes”. Moreover, the “Treatment necessary to induce the same downstream changes as 100 nM of compound 13” value in assay [4] (24-hr) was found to be 1 µM.

Take `Nc1cccc2c1C(=O)N(C1CCC(=O)NC1=O)C2=O` (stereo not shown) [Pomalidomide, reference compound]: the Antiproliferative activity result in assay [2] (72-hr) is “no detectable antiproliferative activity”. In addition, in assay [5] (72-hr co-treatment with AZD1775), the “Synergy with AZD1775” value is listed as “not synergistic”. Further, the “Synergy with Olaparib” value in assay [5] (72-hr co-treatment with Olaparib) is listed as “not synergistic”. Further, the IC50 in assay [6] and in assay [3] was greater than 10000 nM throughout. Moreover, the “Effect on phosphorylation of CDK1 Y15, apoptosis, DNA damage” value in assay [4] (1 μM, 24 hours) is listed as “did not affect phosphorylation of CDK1 Y15, apoptosis, or levels of DNA damage”.
